Measurements published in the kinase profiling compilation of Christmann-Franck et al. (2016).

Legend:
Assay in all cases: KINOMEscan competition binding
AAK1 (human) = AAK1 (human) (UniProt Q2M2I8); settings: compound 10.0 µM
ACVR2B (human) = ACVR2B (human) (UniProt Q13705); settings: compound 10.0 µM
CAMKK1 (human) = CAMKK1 (human) (UniProt Q8N5S9); settings: compound 10.0 µM
CHUK (human) = CHUK (human) (UniProt O15111); settings: compound 10.0 µM
CLK3 (human) = CLK3 (human) (UniProt P49761); settings: compound 10.0 µM
CSNK1G1 (human) = CSNK1G1 (human) (UniProt Q9HCP0); settings: compound 10.0 µM
CSNK1G3 (human) = CSNK1G3 (human) (UniProt Q9Y6M4); settings: compound 10.0 µM
CSNK2A1 (human) = CSNK2A1 (human) (UniProt P68400); settings: compound 10.0 µM
DAPK3 (human) = DAPK3 (human) (UniProt O43293); settings: compound 10.0 µM
DAPK3 (human), sequence (O43293 whole entry, looked up): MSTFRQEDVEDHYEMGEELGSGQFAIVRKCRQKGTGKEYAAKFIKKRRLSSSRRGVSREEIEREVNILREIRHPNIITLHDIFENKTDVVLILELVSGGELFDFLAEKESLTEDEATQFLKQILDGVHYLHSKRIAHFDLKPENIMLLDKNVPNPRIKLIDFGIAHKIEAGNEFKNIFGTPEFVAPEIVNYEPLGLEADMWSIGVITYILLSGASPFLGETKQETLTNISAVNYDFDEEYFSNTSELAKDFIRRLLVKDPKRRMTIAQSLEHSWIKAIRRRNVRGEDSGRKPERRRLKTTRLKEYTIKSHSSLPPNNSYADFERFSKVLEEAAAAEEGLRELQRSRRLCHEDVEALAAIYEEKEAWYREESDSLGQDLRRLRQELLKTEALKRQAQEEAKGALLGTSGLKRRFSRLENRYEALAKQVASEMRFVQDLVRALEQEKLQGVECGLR

[1] = system: EGFR (human), P00533 [747-751 del / S ins]; settings: compound 10.0 µM
[2] = system: EGFR (human), P00533 [G719S]; settings: compound 10.0 µM
GAK (human) = GAK (human) (UniProt O14976); settings: compound 10.0 µM
[3] = target: JAK3 JH1 catalytic (human) (UniProt P52333); settings: compound 10.0 µM
MAPK15 (human) = MAPK15 (human) (UniProt Q8TD08); settings: compound 10.0 µM
MYLK (human) = MYLK (human) (UniProt Q15746); settings: compound 10.0 µM
MYLK4 (human) = MYLK4 (human) (UniProt Q86YV6); settings: for kinase still bound, per cent of control: compound 10.0 µM
RPS6KA2 KD2 (human) = RPS6KA2 KD2 (human) (UniProt Q15349); settings: compound 10.0 µM
RPS6KA4 KD2 (human) = RPS6KA4 KD2 (human) (UniProt O75676); settings: compound 10.0 µM
RPS6KA5 KD2 (human) = RPS6KA5 KD2 (human) (UniProt O75582); settings: compound 10.0 µM
STK11 (human) = STK11 (human) (UniProt Q15831); settings: compound 10.0 µM
STK16 (human) = STK16 (human) (UniProt O75716); settings: compound 10.0 µM
STK33 (human) = STK33 (human) (UniProt Q9BYT3); settings: compound 10.0 µM
TAOK3 (human) = TAOK3 (human) (UniProt Q9H2K8); settings: compound 10.0 µM
ULK2 (human) = ULK2 (human) (UniProt Q8IYT8); settings: compound 10.0 µM
ULK2 (human), sequence (Q8IYT8 whole entry, looked up): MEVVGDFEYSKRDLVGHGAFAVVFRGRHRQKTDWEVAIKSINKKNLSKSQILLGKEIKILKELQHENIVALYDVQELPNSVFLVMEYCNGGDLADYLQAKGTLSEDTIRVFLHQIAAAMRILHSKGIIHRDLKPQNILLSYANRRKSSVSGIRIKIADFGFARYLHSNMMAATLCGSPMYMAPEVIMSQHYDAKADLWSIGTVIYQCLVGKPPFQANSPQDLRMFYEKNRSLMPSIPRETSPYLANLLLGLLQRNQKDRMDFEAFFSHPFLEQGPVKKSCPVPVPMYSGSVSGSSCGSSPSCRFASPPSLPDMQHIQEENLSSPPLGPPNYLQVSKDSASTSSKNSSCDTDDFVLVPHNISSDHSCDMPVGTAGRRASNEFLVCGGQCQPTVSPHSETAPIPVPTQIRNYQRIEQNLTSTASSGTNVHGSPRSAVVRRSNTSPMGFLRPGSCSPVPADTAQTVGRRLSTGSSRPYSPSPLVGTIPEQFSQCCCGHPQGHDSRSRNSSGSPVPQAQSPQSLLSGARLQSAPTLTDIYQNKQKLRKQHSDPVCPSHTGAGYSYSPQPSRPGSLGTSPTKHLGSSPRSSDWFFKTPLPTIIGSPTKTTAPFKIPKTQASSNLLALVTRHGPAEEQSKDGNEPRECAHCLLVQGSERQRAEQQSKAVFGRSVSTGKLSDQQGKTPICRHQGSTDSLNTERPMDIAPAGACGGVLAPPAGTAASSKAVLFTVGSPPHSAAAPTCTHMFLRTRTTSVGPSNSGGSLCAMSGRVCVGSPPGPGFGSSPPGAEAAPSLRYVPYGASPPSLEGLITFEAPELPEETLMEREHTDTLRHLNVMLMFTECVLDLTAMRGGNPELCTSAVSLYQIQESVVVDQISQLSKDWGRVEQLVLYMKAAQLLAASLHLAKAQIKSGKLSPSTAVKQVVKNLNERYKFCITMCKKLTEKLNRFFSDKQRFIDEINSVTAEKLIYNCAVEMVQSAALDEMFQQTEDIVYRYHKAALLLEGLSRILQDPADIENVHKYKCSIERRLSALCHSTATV

ACVR1 (human) = ACVR1 (human) (UniProt Q04771); settings: compound 10.0 µM
[4] = system: FLT3 (human), P36888 [D835Y]; settings: compound 10.0 µM
[5] = system: FLT3 (human), P36888 [N841I]; settings: compound 10.0 µM
[6] = system: KIT (human), P10721 [V559D]; settings: compound 10.0 µM
MINK1 (human) = MINK1 (human) (UniProt Q8N4C8); settings: compound 10.0 µM
MKNK1 (human) = MKNK1 (human) (UniProt Q9BUB5); settings: compound 10.0 µM
MKNK1 (human), sequence (Q9BUB5 whole entry, looked up): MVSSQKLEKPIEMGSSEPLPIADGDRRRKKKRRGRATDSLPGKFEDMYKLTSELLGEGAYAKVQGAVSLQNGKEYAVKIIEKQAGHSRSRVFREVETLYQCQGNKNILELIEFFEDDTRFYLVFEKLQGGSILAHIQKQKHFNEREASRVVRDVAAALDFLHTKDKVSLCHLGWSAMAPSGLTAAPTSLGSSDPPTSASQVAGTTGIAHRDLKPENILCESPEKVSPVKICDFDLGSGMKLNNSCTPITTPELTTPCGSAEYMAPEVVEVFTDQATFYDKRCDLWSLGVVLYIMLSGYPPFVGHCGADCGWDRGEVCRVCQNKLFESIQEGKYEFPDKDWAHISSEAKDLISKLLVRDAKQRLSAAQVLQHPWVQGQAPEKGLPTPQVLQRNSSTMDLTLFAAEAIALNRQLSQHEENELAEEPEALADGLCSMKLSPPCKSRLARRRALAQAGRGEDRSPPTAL

PDGFRB (human) = PDGFRB (human) (UniProt P09619); settings: compound 10.0 µM
PLK4 (human) = PLK4 (human) (UniProt O00444); settings: compound 10.0 µM
PRKD1 (human) = PRKD1 (human) (UniProt Q15139); settings: compound 10.0 µM
PRKD3 (human) = PRKD3 (human) (UniProt O94806); settings: compound 10.0 µM
RIPK2 (human) = RIPK2 (human) (UniProt O43353); settings: compound 10.0 µM
TNIK (human) = TNIK (human) (UniProt Q9UKE5); settings: compound 10.0 µM
TTK (human) = TTK (human) (UniProt P33981); settings: compound 10.0 µM
TTK (human), sequence (P33981 whole entry, looked up): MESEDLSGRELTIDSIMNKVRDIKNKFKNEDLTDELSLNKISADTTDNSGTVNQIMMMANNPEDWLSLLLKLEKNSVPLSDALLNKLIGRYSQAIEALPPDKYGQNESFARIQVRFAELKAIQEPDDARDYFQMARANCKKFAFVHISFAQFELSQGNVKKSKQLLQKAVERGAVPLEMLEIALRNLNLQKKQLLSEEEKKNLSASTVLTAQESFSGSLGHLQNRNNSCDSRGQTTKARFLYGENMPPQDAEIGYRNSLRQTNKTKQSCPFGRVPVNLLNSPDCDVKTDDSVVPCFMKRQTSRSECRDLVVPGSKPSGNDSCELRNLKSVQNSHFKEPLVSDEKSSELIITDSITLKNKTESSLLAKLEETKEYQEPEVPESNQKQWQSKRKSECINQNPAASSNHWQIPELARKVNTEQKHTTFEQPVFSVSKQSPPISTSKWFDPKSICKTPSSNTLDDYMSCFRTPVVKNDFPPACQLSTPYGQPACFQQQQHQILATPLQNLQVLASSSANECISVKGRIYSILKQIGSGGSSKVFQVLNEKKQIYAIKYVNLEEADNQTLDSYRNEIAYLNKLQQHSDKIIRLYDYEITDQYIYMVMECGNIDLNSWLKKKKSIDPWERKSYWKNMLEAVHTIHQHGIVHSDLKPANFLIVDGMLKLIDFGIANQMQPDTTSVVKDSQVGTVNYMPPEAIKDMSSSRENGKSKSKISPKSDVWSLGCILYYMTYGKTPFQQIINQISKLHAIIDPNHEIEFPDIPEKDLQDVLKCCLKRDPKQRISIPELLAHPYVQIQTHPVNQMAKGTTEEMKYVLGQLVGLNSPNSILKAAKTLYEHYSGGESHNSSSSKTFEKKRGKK

CDK16 (human) = CDK16 (human) (UniProt Q00536); settings: compound 10.0 µM
[7] = system: FLT3 (human), P36888 [K663Q]; settings: compound 10.0 µM
MAPK8 (human) = MAPK8 (human) (UniProt P45983); settings: compound 10.0 µM
NEK2 (human) = NEK2 (human) (UniProt P51955); settings: compound 10.0 µM
[8] = target: TYK2 JH2 pseudokinase (human) (UniProt P29597); settings: compound 10.0 µM

AAK1 (human), sequence (Q2M2I8 whole entry, looked up): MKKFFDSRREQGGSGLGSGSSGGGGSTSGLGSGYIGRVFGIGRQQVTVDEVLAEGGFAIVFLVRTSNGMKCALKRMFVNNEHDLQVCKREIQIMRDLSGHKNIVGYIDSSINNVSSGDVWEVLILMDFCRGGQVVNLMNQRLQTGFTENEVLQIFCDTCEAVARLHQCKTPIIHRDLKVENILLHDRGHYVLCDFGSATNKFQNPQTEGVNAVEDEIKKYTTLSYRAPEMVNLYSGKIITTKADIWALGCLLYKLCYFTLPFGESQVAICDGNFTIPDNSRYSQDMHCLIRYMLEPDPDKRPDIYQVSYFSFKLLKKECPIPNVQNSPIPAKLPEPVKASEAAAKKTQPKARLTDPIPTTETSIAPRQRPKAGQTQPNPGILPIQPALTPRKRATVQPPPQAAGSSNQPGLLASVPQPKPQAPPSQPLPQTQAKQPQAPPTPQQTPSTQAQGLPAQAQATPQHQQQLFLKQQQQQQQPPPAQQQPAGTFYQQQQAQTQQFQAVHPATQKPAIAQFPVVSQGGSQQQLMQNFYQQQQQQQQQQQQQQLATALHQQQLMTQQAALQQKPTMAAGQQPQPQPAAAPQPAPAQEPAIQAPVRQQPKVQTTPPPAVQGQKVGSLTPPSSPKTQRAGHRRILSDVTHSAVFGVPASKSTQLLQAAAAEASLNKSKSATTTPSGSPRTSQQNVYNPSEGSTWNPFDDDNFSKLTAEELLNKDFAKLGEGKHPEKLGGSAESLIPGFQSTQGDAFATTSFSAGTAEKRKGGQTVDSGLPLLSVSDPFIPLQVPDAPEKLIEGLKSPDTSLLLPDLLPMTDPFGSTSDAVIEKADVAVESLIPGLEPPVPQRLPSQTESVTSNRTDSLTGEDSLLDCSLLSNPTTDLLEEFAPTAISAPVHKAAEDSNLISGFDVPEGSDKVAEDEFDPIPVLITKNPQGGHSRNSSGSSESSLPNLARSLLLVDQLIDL
CAMKK1 (human), sequence (Q8N5S9 whole entry, looked up): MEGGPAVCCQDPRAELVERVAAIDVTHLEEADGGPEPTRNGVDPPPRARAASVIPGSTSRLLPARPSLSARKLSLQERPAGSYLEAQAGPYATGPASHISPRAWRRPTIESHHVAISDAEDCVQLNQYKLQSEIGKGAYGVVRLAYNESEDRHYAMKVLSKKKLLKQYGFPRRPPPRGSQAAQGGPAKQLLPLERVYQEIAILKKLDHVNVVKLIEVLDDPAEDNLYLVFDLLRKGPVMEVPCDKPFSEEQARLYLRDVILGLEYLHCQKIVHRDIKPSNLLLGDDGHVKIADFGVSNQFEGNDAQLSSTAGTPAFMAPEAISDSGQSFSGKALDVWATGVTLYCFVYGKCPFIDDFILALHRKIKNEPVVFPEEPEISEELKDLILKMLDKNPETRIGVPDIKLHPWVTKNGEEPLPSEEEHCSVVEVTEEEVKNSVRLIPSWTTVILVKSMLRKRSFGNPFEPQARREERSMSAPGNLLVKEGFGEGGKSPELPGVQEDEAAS
CHUK (human), sequence (O15111 whole entry, looked up): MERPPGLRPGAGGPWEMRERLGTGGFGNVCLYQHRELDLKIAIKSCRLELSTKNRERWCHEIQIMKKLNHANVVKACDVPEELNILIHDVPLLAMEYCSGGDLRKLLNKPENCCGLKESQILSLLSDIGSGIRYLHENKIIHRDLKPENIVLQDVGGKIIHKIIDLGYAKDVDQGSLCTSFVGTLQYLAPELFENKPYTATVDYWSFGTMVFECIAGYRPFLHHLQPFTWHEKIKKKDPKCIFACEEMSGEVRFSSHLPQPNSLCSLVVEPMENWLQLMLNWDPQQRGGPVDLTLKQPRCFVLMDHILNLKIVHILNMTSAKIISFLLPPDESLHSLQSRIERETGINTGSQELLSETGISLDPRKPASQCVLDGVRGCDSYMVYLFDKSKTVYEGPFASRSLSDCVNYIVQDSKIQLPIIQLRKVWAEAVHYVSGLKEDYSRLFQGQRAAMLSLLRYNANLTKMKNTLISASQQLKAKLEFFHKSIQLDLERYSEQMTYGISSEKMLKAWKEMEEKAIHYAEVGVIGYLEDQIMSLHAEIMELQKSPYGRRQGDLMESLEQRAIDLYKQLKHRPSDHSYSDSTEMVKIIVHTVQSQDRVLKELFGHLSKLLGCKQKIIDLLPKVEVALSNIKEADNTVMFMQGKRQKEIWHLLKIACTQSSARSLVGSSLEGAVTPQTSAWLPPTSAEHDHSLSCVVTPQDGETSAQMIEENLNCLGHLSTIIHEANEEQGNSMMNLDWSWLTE

| kinase still bound, per cent of control (AAK1 (human)) [%] | kinase still bound, per cent of control (ACVR2B (human)) [%] | kinase still bound, per cent of control (CHUK (human)) [%] | kinase still bound, per cent of control (CSNK1G1 (human)) [%] | kinase still bound, per cent of control (CSNK1G3 (human)) [%] | kinase still bound, per cent of control (CSNK2A1 (human)) [%] | kinase still bound, per cent of control (DAPK3 (human)) [%] | kinase still bound, per cent of control [2] [%] | kinase still bound, per cent of control (GAK (human)) [%] | kinase still bound, per cent of control (MYLK (human)) [%] | kinase still bound, per cent of control (MYLK4 (human)) [%] | kinase still bound, per cent of control (RPS6KA2 KD2 (human)) [%] | kinase still bound, per cent of control (RPS6KA4 KD2 (human)) [%] | kinase still bound, per cent of control (STK11 (human)) [%] | kinase still bound, per cent of control (STK16 (human)) [%] | kinase still bound, per cent of control (TAOK3 (human)) [%] | kinase still bound, per cent of control [4] [%] | kinase still bound, per cent of control (PLK4 (human)) [%] | kinase still bound, per cent of control (TNIK (human)) [%] | SMILES | kinase still bound, per cent of control (MAPK15 (human)) [%] | further results |
| --- | --- | --- | --- | --- | --- | --- | --- | --- | --- | --- | --- | --- | --- | --- | --- | --- | --- | --- | --- | --- | --- |
| 1.8 | 10 | 30 | 19 | 13 | 17 | 0.6 | 21 | 9.2 | 25 | 2.8 | 3.8 | 0.1 | 19 | 9.3 | 24 |  |  |  | Nc1cccc(-c2cc(/C=C3\SC(=O)NC3=O)c[nH]c2=O)c1 | 0.55 | kinase still bound, per cent of control (CAMKK1 (human)): 3.6%; kinase still bound, per cent of control (CLK3 (human)): 1.2%; kinase still bound, per cent of control [1]: 4.8%; kinase still bound, per cent of control [3]: 6.8%; kinase still bound, per cent of control (RPS6KA5 KD2 (human)): 11%; kinase still bound, per cent of control (STK33 (human)): 19%; kinase still bound, per cent of control (ULK2 (human)): 33% |
| 32 | 4.2 | 19 | 18 | 1 |  | 25 | 24 |  |  | 29 |  |  | 17 |  | 4.7 | 3.8 | 5.6 | 19 | CS(=O)(=O)Nc1ccc(-c2cncc(/C=C3\SC(=N)NC3=O)c2)cc1 | 13 | kinase still bound, per cent of control (ACVR1 (human)): 1.8%; kinase still bound, per cent of control [1]: 24%; kinase still bound, per cent of control [5]: 28%; kinase still bound, per cent of control [6]: 6%; kinase still bound, per cent of control (MINK1 (human)): 4.4%; kinase still bound, per cent of control (MKNK1 (human)): 0.55%; kinase still bound, per cent of control (PDGFRB (human)): 7.2%; kinase still bound, per cent of control (PRKD1 (human)): 22%; kinase still bound, per cent of control (PRKD3 (human)): 24%; kinase still bound, per cent of control (RIPK2 (human)): 1.4%; kinase still bound, per cent of control (STK33 (human)): 18%; kinase still bound, per cent of control (ULK2 (human)): 29% |
| 13 | 16 |  | 22 | 8.3 |  | 6.9 |  | 2.8 | 19 |  |  | 1.2 |  |  |  | 12 | 11 | 16 | CS(=O)(=O)Nc1ccc(-c2ncc(/C=C3\SC(=N)NC3=O)s2)cc1 |  | kinase still bound, per cent of control (MINK1 (human)): 1.3%; kinase still bound, per cent of control (MKNK1 (human)): 13%; kinase still bound, per cent of control (PDGFRB (human)): 10%; kinase still bound, per cent of control (RIPK2 (human)): 6.6%; kinase still bound, per cent of control (TTK (human)): 19%; kinase still bound, per cent of control (ULK2 (human)): 24% |
| 1.1 | 7.6 | 1.4 |  |  | 6.4 | 6.2 | 26 | 0.9 | 19 | 0.05 | 13 | 27 | 6 | 2.6 | 26 | 0.45 | 0.95 | 8 | N=C1NC(=O)/C(=C/c2ccc(-c3cncc4ccccc34)o2)S1 | 10 | kinase still bound, per cent of control (ACVR1 (human)): 0.5%; kinase still bound, per cent of control (CAMKK1 (human)): 3.4%; kinase still bound, per cent of control (CDK16 (human)): 9.8%; kinase still bound, per cent of control (CLK3 (human)): 18%; kinase still bound, per cent of control [7]: 8.1%; kinase still bound, per cent of control [5]: 0.95%; kinase still bound, per cent of control [6]: 7.2%; kinase still bound, per cent of control (MAPK8 (human)): 20%; kinase still bound, per cent of control (MKNK1 (human)): 0.8%; Kd (MYLK4 (human)): 55 nM; kinase still bound, per cent of control (PDGFRB (human)): 5.4%; kinase still bound, per cent of control (PRKD1 (human)): 16%; kinase still bound, per cent of control (PRKD3 (human)): 26%; kinase still bound, per cent of control (STK33 (human)): 12%; kinase still bound, per cent of control (TTK (human)): 2.4% |
|  |  |  | 23 | 17 | 25 | 33 |  | 15 | 23 | 30 | 20 | 0.55 |  | 4.8 | 10 | 2.6 | 1.6 | 13 | CN1C(=O)[C@H]2CCC[C@H]2N(C2CCCC2)c2nc(Nc3ccc(C(N)=O)cc3)ncc21 | 18 | kinase still bound, per cent of control (CDK16 (human)): 18%; kinase still bound, per cent of control [7]: 14%; kinase still bound, per cent of control [5]: 5.2%; kinase still bound, per cent of control [3]: 32%; kinase still bound, per cent of control (MAPK8 (human)): 29%; kinase still bound, per cent of control (MINK1 (human)): 1.8%; kinase still bound, per cent of control (NEK2 (human)): 13%; kinase still bound, per cent of control (TTK (human)): 14%; kinase still bound, per cent of control [8]: 15%; kinase still bound, per cent of control (ULK2 (human)): 17% |
| 4.7 | 25 | 8.4 |  |  | 3.2 | 7.4 | 27 | 1.3 |  | 0.25 | 6.2 |  | 17 | 9.8 |  | 1.8 | 0.85 | 11 | O=C1NC(=S)S/C1=C\c1ccc(-c2cncc3ccccc23)o1 | 9 | kinase still bound, per cent of control (ACVR1 (human)): 14%; kinase still bound, per cent of control (CAMKK1 (human)): 5.6%; kinase still bound, per cent of control (CDK16 (human)): 5.2%; kinase still bound, per cent of control [7]: 14%; kinase still bound, per cent of control [5]: 4%; kinase still bound, per cent of control [3]: 21%; kinase still bound, per cent of control [6]: 26%; kinase still bound, per cent of control (MAPK8 (human)): 7%; kinase still bound, per cent of control (MINK1 (human)): 33%; kinase still bound, per cent of control (MKNK1 (human)): 33%; kinase still bound, per cent of control (PDGFRB (human)): 18%; kinase still bound, per cent of control (TTK (human)): 17%; kinase still bound, per cent of control [8]: 5% |
